The target in the experiment is T1, NHE1 (Homo sapiens, UniProt P19634).
T1 construct: expressed in transfected cells
T1 sequence (P19634 whole entry, species assumed): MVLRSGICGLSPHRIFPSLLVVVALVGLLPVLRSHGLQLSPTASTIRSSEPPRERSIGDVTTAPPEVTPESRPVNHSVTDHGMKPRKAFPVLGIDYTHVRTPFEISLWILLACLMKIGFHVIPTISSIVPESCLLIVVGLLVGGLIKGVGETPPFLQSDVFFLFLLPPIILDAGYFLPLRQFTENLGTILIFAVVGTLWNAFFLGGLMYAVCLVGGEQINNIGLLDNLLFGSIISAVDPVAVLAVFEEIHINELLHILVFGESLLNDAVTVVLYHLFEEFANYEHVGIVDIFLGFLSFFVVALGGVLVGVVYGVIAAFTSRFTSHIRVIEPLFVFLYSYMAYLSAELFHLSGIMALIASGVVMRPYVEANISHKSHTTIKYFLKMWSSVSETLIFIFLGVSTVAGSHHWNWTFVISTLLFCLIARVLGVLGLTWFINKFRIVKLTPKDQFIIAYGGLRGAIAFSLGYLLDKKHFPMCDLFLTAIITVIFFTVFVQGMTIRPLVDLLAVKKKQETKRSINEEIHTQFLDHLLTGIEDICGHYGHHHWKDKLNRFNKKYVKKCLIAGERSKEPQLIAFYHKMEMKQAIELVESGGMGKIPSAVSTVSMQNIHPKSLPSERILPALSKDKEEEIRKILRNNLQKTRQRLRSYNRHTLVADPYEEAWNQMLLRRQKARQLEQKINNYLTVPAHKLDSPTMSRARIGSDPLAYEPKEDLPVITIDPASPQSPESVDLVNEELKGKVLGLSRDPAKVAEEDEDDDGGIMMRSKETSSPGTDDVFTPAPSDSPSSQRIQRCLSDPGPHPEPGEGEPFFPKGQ
The experiment can be described thus: NHE inhibition FLIPR test (intracellular pH recovery, BCECF) in transfected LAP-1 cells. The note with it: transfected cell line (parental LAP-1) expressing the NHE-1 subtype, pHi recovery after acidification. In kind it is cell-based. As to the method: The NHE inhibitory activities (IC50 values) of the compounds according to the invention were determined by a FLIPR test.
The test is performed in the FLIPR (Fluorescent Imaging Plate Reader) equipped with clear-bottomed and black-walled 96-well microtitration plates.
The growth medium for the transfected cells (Iscove +10% foetal calf serum) also comprises G418 as selection antibiotic to ensure the presence of transfected sequences.
The actual test begins by eliminating the growth medium and adding 100 μl of loading buffer per well (5 μM of BCECF-AM [2′,7′-bis(2-carboxyethyl)-5-(6)-carboxyfluoresceine acetoxymethyl ester] in 20 mM of NH4Cl, 115 mM of choline chloride, 1 mM of CaCl2, 5 mM of KCl, 20 mM of HEPES and 5 mM of glucose; pH 7.4 (adjusted with KOH). The cells are then incubated for 20 minutes at 37° C. This incubation results in the loading of the fluorescent dye into the cells, the fluorescence intensity of which depends on the pHi, and on the NH4Cl, which results in a slight basification of the cells.
The precursor BCECF-AM, a non-fluorescent dye, is, as an ester, capable of crossing the membrane. The actual dye, which is incapable of crossing the membrane, is released inside the cell by esterases.
After this 20-minute incubation, the loading buffer, which comprises NH4Cl and free BCECF-AM, is removed by washing three times in the cell washing device (Tecan Columbus), each wash being performed with 400 μl of washing buffer (133.8 mM of choline chloride, 4.7 mM of KCl, 1.25 mM of MgCl2, 1.25 mM of CaCl2, 0.97 mM of K2HPO4, 0.23 mM of KH2PO4, 5 mM of HEPES and 5 mM of glucose; pH 7.4 (adjusted with KOH)). The residual volume remaining in the wells is 90 μl (possibly between 50 and 125 μl). This washing step removes the free BCECF-AM and results in an intracellular acidification (pHi of 6.3-6.4) due to the removal of the external ammonium ions.
As the equilibrium of the intracellular ammonium with the aqueous ammonia and the protons, by removal of the extracellular ammonium and by the subsequent immediate crossing of the aqueous ammonia across the cell membrane, is disrupted, the washing process results in intracellular protons remaining, which is the cause of the intracellular acidification. This acidification can result finally in the death of the cells if it lasts long enough. It is important here for the washing buffer to be free of sodium (<1 mM), otherwise the extracellular sodium ions would result in an immediate increase in the pHi on account of the activity of the cloned NHE isoforms. It is also important for all the buffers used (loading buffer, washing buffer and regeneration buffer) not to contain any HCO3-ions, otherwise the presence of bicarbonate would result in the activation of bicarbonate-dependent systems that disrupt the pHi regulation, which systems are contained in the LAP-1 parental cell line.
The microtiter plates containing acidified cells are then transferred (up to 20 minutes after the acidification) to the FLIPR. In the FLIPR, the intracellular fluorescent dye is activated with light of a wavelength of 488 nm, which is generated by an argon laser, and the measuring parameters (laser power, illumination time and diaphragm of the […] camera integrated into the FLIPR) are chosen such that the average value of the fluorescent signal per well is between 30,000 and 35,000 relative fluorescence units.
The actual measurement in the FLIPR starts with a photograph being taken by the CCD camera every two seconds under software control. After 10 seconds, the increase in the intracellular pH is initiated by adding 90 μl of regeneration buffer (133.8 mM of NaCl, 4.7 mM of KCl, 1.25 mM of MgCl2, 1.25 mM of CaCl2, 0.97 mM of K2HPO4, 0.23 mM of KH2PO4, 10 mM of HEPES and 5 mM of glucose; pH 7.4 (adjusted with NaOH)) using a 96-well pipette device incorporated into the FLIPR. Some wells, to which is added pure regeneration buffer, serve as positive controls (100% NHE activity). […]
`NC(N)=NC(=O)CC1c2ccc(Cl)cc2C(=O)N1CC1CC1` (single isomer, unassigned) [Example 56a]: the half-maximal inhibitory concentration (IC50) (as a rule, the concentration at which inhibition is half-maximal) came to 28 nM. As for `NC(N)=NC(=O)CC1c2ccc(Cl)cc2C(=O)N1CC1CC1` (single isomer, unassigned) [Example 56b], the figure is 18 nM.

For the compound `CC(C)CN1C(=O)c2ccccc2C1CC(=O)N=C(N)N` (single isomer, unassigned; (+)) [Example 4, (+)-N-[2-(2-Isobutyl-3-oxo-2,3-dihydro-1H-isoindol-1-yl)acetyl]guanidine], the 50% inhibitory concentration (IC50) stood at 57 nM.

Regarding `CN1C(=O)c2ccccc2C1CC(=O)N=C(N)N` (centres unmarked) [Example 1, N-[2-(2-Methyl-3-oxo-2,3-dihydro-1H-isoindol-1-yl)acetyl]guanidine], the IC50 came to 74 nM. For the compound `CC(C)CN1C(=O)c2ccccc2C1CC(=O)N=C(N)N` (centres unmarked) [Example 2, N-[2-(2-Isobutyl-3-oxo-2,3-dihydro-1H-isoindol-1-yl)acetyl]guanidine], the IC50 was determined as 59 nM. The result for `CC(C)N1C(=O)c2ccccc2C1CC(=O)N=C(N)N` (centres unmarked) [Example 7, N-[2-(2-Isopropyl-3-oxo-2,3-dihydro-1H-isoindol-1-yl)acetyl]guanidine] reads 116 nM; that for `NC(N)=NC(=O)CC1c2ccccc2C(=O)N1Cc1ccccc1` (centres unmarked) [Example 9, N-[2-(2-Benzyl-3-oxo-2,3-dihydro-1H-isoindol-1-yl)acetyl]guanidine], 156 nM. The result for `CC(C)CN1C(=O)c2cc(OC(C)C)ccc2C1CC(=O)N=C(N)N` (centres unmarked) [Example 16, N-[2-(2-Isobutyl-5-isopropoxy-3-oxo-2,3-dihydro-1H-isoindol-1-yl)-acetyl]-guanidine] reads 251 nM. The result for `CC(C)CN1C(=O)c2cccc(F)c2C1CC(=O)N=C(N)N` (centres unmarked) [Example 17, N-[2-(7-Fluoro-2-isobutyl-3-oxo-2,3-dihydro-1H-isoindol-1-yl)acetyl]guanidine] reads 43 nM; that for `Cc1cccc2c1C(=O)N(CC(C)C)C2CC(=O)N=C(N)N` (centres unmarked) [Example 20, N-[2-(2-Isobutyl-4-methyl-3-oxo-2,3-dihydro-1H-isoindol-1-yl)-acetyl]-guanidine], 18 nM. On to `NC(N)=NC(=O)CC1c2cc(C(F)(F)F)ccc2C(=O)N1CC(F)(F)F` (centres unmarked) [Example 21, N-{2-[3-Oxo-2-(2,2,2-trifluoro-ethyl)-6-trifluoromethyl-2,3-dihydro-1H-isoindol-1-yl]-acetyl}-quanidine], for which the half-inhibitory concentration (IC50) worked out at 4.9 nM. As for `N=C(N)NC(=O)CC1c2ccccc2C(=O)N1CC(F)(F)F` (centres unmarked) [Example 22, N-[2-(3-Oxo-2-(2,2,2-trifluoroethyl)-2,3-dihydro-1H-isoindol-1-yl)acetyl]guanidine], the figure is 100 nM; as for `Cc1ccc2c(c1)C(CC(=O)NC(=N)N)N(CC(C)C)C2=O` (centres unmarked) [Example 35, N-[(2-Isobutyl-6-methyl-3-oxo-2,3-dihydro-1H-isoindol-1-yl)acetyl]guanidine], 38 nM.

Turning to `[H]/N=C(\N)NC(=O)CC1c2cc(S(C)(=O)=O)ccc2C(=O)N1CC(F)(F)F` [Example 36, (R)-N-{2-[6-Methanesulfonyl-3-oxo-2-(2,2,2-trifluoro-ethyl)-2,3-dihydro-1H-isoindol-1-yl]-acetyl}-quanidine and (S)-N-{2-[6-Methanesulfonyl-3-oxo-2-(2,2,2-trifluoro-ethyl)-2,3-dihydro-1H-isoindol-1-yl]-acetyl}-quanidine], the IC50 stood at 31 nM. Turning to `[H]/N=C(\N)NC(=O)CC1c2cc(S(C)(=O)=O)ccc2C(=O)N1CC1CC1` (centres unmarked) [Example 37, N-[2-(2-Cyclopropylmethyl-6-methanesulfonyl-3-oxo-2,3-dihydro-1H-isoindol-1-yl)acetyl]-guanidinium acetate], the half-inhibitory concentration (IC50) was 188 nM. As to `[H]/N=C(\N)NC(=O)CC1c2cc(Cl)c(Cl)cc2C(=O)N1CCC(F)(F)F` (centres unmarked) [Example 41a, N-{2-[5,6-Dichloro-3-oxo-2-(3,3,3-trifluoro-propyl)-2,3-dihydro-1H-isoindol-1-yl]-acetyl}-guanidine acetate], the IC50 was 3 nM. As for `NC(N)=NC(=O)CC1c2cc(Cl)c(Cl)cc2C(=O)N1CC(F)(F)F` (centres unmarked) [Example 44a, N-{2-[5,6-Dichloro-3-oxo-2-(2,2,2-trifluoro-ethyl)-2,3-dihydro-1H-isoindol-1-yl]-acetyl}-guanidine acetate], the figure is 2 nM; as for `NC(N)=NC(=O)CC1c2cc(F)c(F)cc2C(=O)N1CC(F)(F)F` (centres unmarked) [Example 45, N-{2-[5,6-Difluoro-3-oxo-2-(2,2,2-trifluoro-ethyl)-2,3-dihydro-1H-isoindol-1-yl]-acetyl}-guanidine], 212 nM; as for “N-[2-(2-Cyclopropylmethyl-3-oxo-5-trifluoromethyl-2,3-dihydro-1H-isoindol-1-yl)acetyl]-guanidine and N-[2-(2-cyclopropylmethyl-3-oxo-6-trifluoromethyl-2,3-dihydro-1H-isoindol-1-yl)acetyl]guanidine [Example 25]”, 10 nM. The result for “N-[2-(3-Oxo-2-(4,4,4-trifluorobutyl)-5-trifluoromethyl-2,3-dihydro-1H-isoindol-1-yl)-acetyl]guanidine and N-[2-(3-Oxo-2-(4,4,4-trifluorobutyl)-6-trifluoromethyl-2,3-dihydro-1H-isoindol-1-yl)acetyl]guanidine [Example 29]” reads 2340 nM; that for “N-[2-(3-Oxo-5-trifluoromethyl-2-(3,3,3-trifluoropropyl)-2,3-dihydro-1H-isoindol-1-yl)-acetyl]guanidine and N-[2-(3-oxo-6-trifluoromethyl-2-(3,3,3-trifluoropropyl)-2,3-dihydro-1H-isoindol-1-yl)acetyl]guanidine [Example 27]”, 22 nM; that for “N-[2-(5-Bromo-2-isobutyl-3-oxo-2,3-dihydro-1H-isoindol-1-yl)acetyl]guanidine and N-[(6-Bromo-2-isobutyl-3-oxo-2,3-dihydro-1H-isoindol-1-yl)acetyl]guanidine [Example 13]”, 22 nM. The result for “N-[2-(5-Chloro-2-isobutyl-3-oxo-2,3-dihydro-1H-isoindol-1-yl)acetyl]guanidine and N-[(6-Chloro-2-isobutyl-3-oxo-2,3-dihydro-1H-isoindol-1-yl)acetyl]guanidine [Example 12]” reads 7 nM.

As to “N-[2-(5-Chloro-3-oxo-2-(2,2,2-trifluoroethyl)-2,3-dihydro-1H-isoindol-1-yl)acetyl]-guanidine and N-[2-(6-chloro-3-oxo-2-(2,2,2-trifluoroethyl )-2,3-dihydro-1H-isoindol-1yl)acetyl]quanidine [Example 23]”, the IC50 was 35 nM. Take “N-[2-(5-Chloro-3-oxo-2-(3,3,3-trifluoropropyl)-2,3-dihydro-1H-isoindol-1-yl)acetyl]-guanidine and N-[2-(6-chloro-3-oxo-2-(3,3,3-trifluoropropyl)-2,3-dihydro-1H-isoindol-1-yl)acetyl]quanidine [Example 26]”: the IC50 is 8.6 nM.

As for “N-[2-(5-Chloro-3-oxo-2-(4,4,4-trifluorobutyl)-2,3-dihydro-1H-isoindol-1-yl)acetyl]-guanidine and N-[2-(6-chloro-3-oxo-2-(4,4,4-trifluorobutyl)-2,3-dihydro-1H-isoindol-1yl)acetyl]guanidine [Example 28]”, the IC50 was 88 nM.
